# ChEMBL document CHEMBL3751846, “Active site-directed plasmin inhibitors: Extension on the P2 residue” (Bioorg Med Chem, 2016)
# Square brackets hold non-standard residues; d marks the D form. Peptide text beside a SMILES is read from it. * marks the point of attachment. pNA = O=[N+]([O-])c1ccc(N*)cc1
# What was measured:
# [1] = target: T1, Plasminogen (Homo sapiens, UniProt P00747); experiment: Inhibition of plasmin (unknown origin) using H-D-Val-Leu-Lys-pNA as substrate
# [2] = target: Urokinase-type plasminogen activator (Homo sapiens, UniProt P00749); experiment: Inhibition of urokinase (unknown origin) using Pyr-Glu-Gly-Arg-pNA as substrate; settings: for inhibition: concentration not given here
# [3] = target: Trypsin (Homo sapiens, UniProt P07477+P07478+P35030); experiment: Inhibition of trypsin (unknown origin) using H-D-Phe-Pip-Arg-pNA as substrate; format: protein assay
# [4] = target: T1, Plasminogen; experiment: Inhibition of human plasmin
# [5] = target: T1, Plasminogen; experiment: Inhibition of plasmin (unknown origin)
# [6] = target: T1, Plasminogen; experiment: Inhibition of human plasmin assessed as inhibition of fibrinogenolysis in presence of fibrinogen
# [7] = target: T1, Plasminogen; experiment: Inhibition of human plasmin assessed as inhibition of fibrinolysis in presence of fibrinogen
# [8] = target: T1, Plasminogen; experiment: Inhibition of human plasmin assessed as inhibition of amidolysis in presence of fibrinogen
# T1 sequence (P00747 97-580 limits assumed): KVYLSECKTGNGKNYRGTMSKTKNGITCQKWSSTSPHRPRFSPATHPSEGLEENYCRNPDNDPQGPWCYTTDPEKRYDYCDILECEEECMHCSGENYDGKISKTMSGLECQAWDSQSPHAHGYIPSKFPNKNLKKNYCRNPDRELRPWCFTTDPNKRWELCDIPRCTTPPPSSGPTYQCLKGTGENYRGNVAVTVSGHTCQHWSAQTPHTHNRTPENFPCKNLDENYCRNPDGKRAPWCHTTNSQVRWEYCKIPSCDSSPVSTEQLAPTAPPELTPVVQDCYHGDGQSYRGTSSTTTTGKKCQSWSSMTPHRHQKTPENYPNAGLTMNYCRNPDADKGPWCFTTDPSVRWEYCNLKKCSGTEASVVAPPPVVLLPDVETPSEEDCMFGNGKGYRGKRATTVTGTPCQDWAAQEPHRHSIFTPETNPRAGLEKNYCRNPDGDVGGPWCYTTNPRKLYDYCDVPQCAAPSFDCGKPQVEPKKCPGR
# T1 sequence (P00747 581-810 limits assumed): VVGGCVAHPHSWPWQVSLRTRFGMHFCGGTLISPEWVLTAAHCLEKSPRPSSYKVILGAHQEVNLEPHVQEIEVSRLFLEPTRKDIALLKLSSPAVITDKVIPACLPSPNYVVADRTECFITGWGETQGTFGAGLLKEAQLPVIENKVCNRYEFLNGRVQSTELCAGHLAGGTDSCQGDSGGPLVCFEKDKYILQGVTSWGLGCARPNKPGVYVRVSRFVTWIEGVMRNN
SMILES,IC50 [1] [µM],IC50 [2] [µM],inhibition [2] [%],IC50 [3] [µM],IC50 [4] [µM],IC50 [5] [µM],IC50 [6] [µM],IC50 [7] [µM],Ki [8] [µM]
CCCCCCCCNC(=O)[C@H](Cc1ccc(OCc2cccc([N+](=O)[O-])c2)cc1)NC(=O)[C@H]1CC[C@H](CN)CC1,0.68,> 100,13,2.1,,,,,
CCCCCCCCNC(=O)[C@H](Cc1ccc(OCc2cccc(N)c2)cc1)NC(=O)[C@H]1CC[C@H](CN)CC1,0.86,> 100,31,0.86,,,,,
CCCCCCCCNC(=O)[C@H](Cc1ccc(OCc2ccc3ccccc3n2)cc1)NC(=O)[C@H]1CC[C@H](CN)CC1,0.22,77,,1.4,,,,,
CCCCCCCCNC(=O)[C@H](Cc1ccc(OCc2ccc(C(=O)OCC)cc2)cc1)NC(=O)[C@H]1CC[C@H](CN)CC1,0.49,> 200,40,6.1,,,,,
CCCCCCCCNC(=O)[C@H](Cc1ccc(OCc2ccccc2C(=O)OC)cc1)NC(=O)[C@H]1CC[C@H](CN)CC1,1.5,> 200,23,4.8,,,,,
CCCCCCCCNC(=O)[C@H](Cc1ccc(OCc2ccncc2)cc1)NC(=O)[C@H]1CC[C@H](CN)CC1,0.53,5.3,,1.1,,,,,
CCCCCCCCNC(=O)[C@H](Cc1ccc(OCc2ccccc2)cc1)NC(=O)[C@H]1CC[C@H](CN)CC1,1.7,> 100,0,2.2,,,,,
CCCCCCCCNC(=O)[C@H](Cc1ccc(OCc2ccc(C(=O)O)cc2)cc1)NC(=O)[C@H]1CC[C@H](CN)CC1,2.7,> 100,22,4.7,,,,,
CCCCCCCCNC(=O)[C@H](Cc1ccc(OCc2cccc3cccnc23)cc1)NC(=O)[C@H]1CC[C@H](CN)CC1,0.34,> 100,24,0.93,,,,,
CCCCCCCCNC(=O)[C@H](Cc1ccc(OCc2cccc(C(=O)O)c2)cc1)NC(=O)[C@H]1CC[C@H](CN)CC1,0.53,> 50,13,2,,,,,
CC(C)C[C@H](NC(=O)[C@H](N)C(C)C)C(=O)N[C@@H](CCCCN)C(=O)Nc1ccc([N+](=O)[O-])cc1 (H-[dV]-Leu-Lys-pNA),,,,,0.53,,,,
CCCCCCCCNC(=O)[C@H](Cc1ccc(OCc2cccc(-c3ccccc3)c2)cc1)NC(=O)[C@H]1CC[C@H](CN)CC1,0.75,> 100,41,6.7,,,,,
CCCCCCCCNC(=O)[C@H](Cc1ccc(OCc2ccccc2C(F)(F)F)cc1)NC(=O)[C@H]1CC[C@H](CN)CC1,3,> 100,5,4.6,,,,,
CCCCCCCCNC(=O)[C@H](Cc1ccc(OCc2cccc(OCc3ccncc3)c2)cc1)NC(=O)[C@H]1CC[C@H](CN)CC1,0.97,> 50,36,1.3,,,,,
CCCCCCCCNC(=O)[C@H](Cc1ccc(OCc2ccc3ccccc3c2)cc1)NC(=O)[C@H]1CC[C@H](CN)CC1,0.71,> 100,23,4.4,,,,,
CC[C@@H](C)[C@@H](N)C(=O)N[C@@H](Cc1ccc(OCc2ccncc2)cc1)C(=O)N[C@H](C#N)CCCCN,,,,,,11,,,
CCCCCCCCNC(=O)[C@H](Cc1ccc(O)cc1)NC(=O)[C@H]1CC[C@H](CN)CC1,67,62,,1,,,,,
CCCCCCCCNC(=O)[C@H](Cc1ccc(OC(C)(C)C)cc1)NC(=O)[C@H]1CC[C@H](CN)CC1,17,> 100,17,0.38,,,,,
CCCCCCNC(=O)[C@H](Cc1ccc(OCc2cccnc2)cc1)NC(=O)c1ccc(CN)cc1,,,,,,,4.5,2.9,2.9
CCCCCCCCNC(=O)[C@H](Cc1ccc(OCc2cccc(C(=O)OCC)c2)cc1)NC(=O)[C@H]1CC[C@H](CN)CC1,0.51,> 50,7,2.7,,,,,
CCCCCCCCNC(=O)[C@H](Cc1ccc(OCc2cccc3ccccc23)cc1)NC(=O)[C@H]1CC[C@H](CN)CC1,1.6,> 100,10,2.7,,,,,
CC[C@@H](C)[C@@H](N)C(=O)N[C@@H](Cc1ccc(OCc2cccc(OCc3ccncc3)c2)cc1)C(=O)N[C@H](C#N)CCCCN,,,,,,7.7,,,
CCCCCCCCNC(=O)[C@H](Cc1ccc(OCc2cccc(C(F)(F)F)c2)cc1)NC(=O)[C@H]1CC[C@H](CN)CC1,0.6,> 100,12,2.5,,,,,
CCCCCCCCNC(=O)[C@H](Cc1ccc(OCc2ccc(C(F)(F)F)cc2)cc1)NC(=O)[C@H]1CC[C@H](CN)CC1,0.96,> 100,6,6.9,,,,,
